The text below walks through data of patent US7820623B2 (priority 2006, dated 2010).

Read-outs that look alike come from different tables or passages of the source. Bridge positions count the residues as written; N and C are the ends. Square brackets hold non-standard residues; d marks the D form. Peptide text beside a SMILES is read from it. 1Nal = N[C@@H](Cc1cccc2ccccc12)C(=O)O

The subject of experiment [1] is thapsigargin-induced IL-2 production in human whole blood.
Experiment [2] deals with thapsigargin-induced IFN-g production in human whole blood. The experiment is classed as cell-based.
Setting [3] is: read-out: Analogue Activity (IC50) WB/IL-2.
Setting [4] is: read-out: Analogue Activity (IC50) WB/IFNg.

For the compound `CC[C@H](C)[C@@H]1NC(=O)[C@H](CCCCN)NC(=O)[C@@H](NC(=O)[C@H](CCCCN)NC(=O)[C@@H](NC(=O)[C@H](CC(N)=O)NC(=O)[C@@H](NC(=O)[C@@H](NC(=O)[C@@H](NC(=O)CN)C(C)C)[C@@H](C)CC)[C@@H](C)CC)C(C)C)CSSC[C@@H]2NC(=O)[C@H](CCCCN)NC(=O)CNC(=O)[C@H](Cc3ccccc3)NC(=O)[C@H](CCCNC(=N)N)NC(=O)[C@H](CCSC)NC(=O)CNC(=O)[C@H](C)NC(=O)[C@H](CCCCN)NC(=O)[C@H](CCCCN)NC(=O)[C@@H]3CSSC[C@@H](C(=O)N[C@H](C(=O)N4CCC[C@H]4C(=O)N[C@@H](CCCCN)C(=O)O)[C@@H](C)O)NC(=O)[C@H](Cc4c[nH]cn4)NC(=O)[C@H](CSSC[C@H](NC(=O)[C@H](CCC(N)=O)NC(=O)[C@H](CCCNC(=N)N)NC(=O)[C@H](CO)NC1=O)C(=O)N[C@@H](CC(C)C)C(=O)N[C@@H](CCC(=O)O)C(=O)N1CCC[C@H]1C(=O)N3)NC(=O)[C@H](CCC(=O)O)NC(=O)CNC(=O)[C@H](CC(N)=O)NC(=O)[C@H](CCSC)NC2=O` [K32E] (H-GVIINVKCKISRQCLEPCKKAGMRFGKCMNGECHCTPK-OH; disulfide 8-28, 14-33, 18-35), the IC50 in experiment [1] (setting [3]) worked out at 0.062 nM; in experiment [2] (setting [4]) it was 0.063 nM.

On to `CC[C@H](C)[C@@H]1NC(=O)[C@H](CCCCN)NC(=O)[C@@H](NC(=O)[C@H](CCCCN)NC(=O)[C@@H](NC(=O)[C@H](CC(N)=O)NC(=O)[C@@H](NC(=O)[C@@H](NC(=O)[C@@H](NC(=O)CN)C(C)C)[C@@H](C)CC)[C@@H](C)CC)C(C)C)CSSC[C@@H]2NC(=O)[C@H](CCCCN)NC(=O)CNC(=O)[C@H](Cc3ccccc3)NC(=O)[C@H](CCCNC(=N)N)NC(=O)[C@H](CCSC)NC(=O)[C@H](Cc3cccc4ccccc34)NC(=O)[C@H](C)NC(=O)[C@H](CCCCN)NC(=O)[C@H](CCCCN)NC(=O)[C@@H]3CSSC[C@@H](C(=O)N[C@H](C(=O)N4CCC[C@H]4C(=O)N[C@@H](CCCCN)C(=O)O)[C@@H](C)O)NC(=O)[C@H](Cc4c[nH]cn4)NC(=O)[C@H](CSSC[C@H](NC(=O)[C@H](CCC(N)=O)NC(=O)[C@H](CCCNC(=N)N)NC(=O)[C@H](CO)NC1=O)C(=O)N[C@@H](CC(C)C)C(=O)N[C@@H](CCC(=O)O)C(=O)N1CCC[C@H]1C(=O)N3)NC(=O)[C@H](CCCCN)NC(=O)CNC(=O)[C@H](CC(N)=O)NC(=O)[C@H](CCSC)NC2=O` [G22Nal] (H-GVIINVKCKISRQCLEPCKKA[1Nal]MRFGKCMNGKCHCTPK-OH; disulfide 8-28, 14-33, 18-35), for which the IC50 came to 10.3 nM in experiment [1] (setting [3]) and 10.6 nM in experiment [2] (setting [4]).

`CC[C@H](C)[C@@H]1NC(=O)[C@H](CCC(=O)O)NC(=O)[C@@H](NC(=O)[C@H](CCCCN)NC(=O)[C@@H](NC(=O)[C@H](CC(N)=O)NC(=O)[C@@H](NC(=O)[C@@H](NC(=O)[C@@H](NC(=O)CN)C(C)C)[C@@H](C)CC)[C@@H](C)CC)C(C)C)CSSC[C@@H]2NC(=O)[C@H](CCCCN)NC(=O)CNC(=O)[C@H](Cc3ccccc3)NC(=O)[C@H](CCCNC(=N)N)NC(=O)[C@H](CCSC)NC(=O)CNC(=O)[C@H](C)NC(=O)[C@H](CCCCN)NC(=O)[C@H](CCCCN)NC(=O)[C@@H]3CSSC[C@@H](C(=O)N[C@H](C(=O)N4CCC[C@H]4C(=O)N[C@@H](CCCCN)C(=O)O)[C@@H](C)O)NC(=O)[C@H](Cc4c[nH]cn4)NC(=O)[C@H](CSSC[C@H](NC(=O)[C@H](CCC(N)=O)NC(=O)[C@H](CCCNC(=N)N)NC(=O)[C@H](CO)NC1=O)C(=O)N[C@@H](CC(C)C)C(=O)N[C@@H](CCC(=O)O)C(=O)N1CCC[C@H]1C(=O)N3)NC(=O)[C@H](CCCCN)NC(=O)CNC(=O)[C@H](CC(N)=O)NC(=O)[C@H](CCSC)NC2=O` [K9E] (H-GVIINVKCEISRQCLEPCKKAGMRFGKCMNGKCHCTPK-OH; disulfide 8-28, 14-33, 18-35): the values for the IC50 in experiment [1] (setting [3]) and in experiment [2] (setting [4]) were 0.179 nM and 0.171 nM, respectively.

As for “GVIINAKCKISRQCLEPCKKAGMRFGKCMNGKCHCTPK [Ala-6 (SEQ ID No: 1405)]”, the IC50 is 0.0733 nM in experiment [1] (read-out: Average IC50 IL-2) and 0.0805 nM in experiment [2] (read-out: Average IC50 IFNg).

Turning to `CC[C@H](C)[C@@H]1NC(=O)[C@H](CCCCN)NC(=O)[C@@H](NC(=O)[C@H](CCCCN)NC(=O)[C@@H](NC(=O)[C@H](CC(N)=O)NC(=O)[C@@H](NC(=O)[C@@H](NC(=O)[C@@H](NC(=O)CN)C(C)C)[C@@H](C)CC)[C@@H](C)CC)C(C)C)CSSC[C@@H]2NC(=O)[C@H](CCCCN)NC(=O)CNC(=O)[C@H](Cc3ccccc3)NC(=O)[C@H](CCCNC(=N)N)NC(=O)[C@H](CCSC)NC(=O)CNC(=O)[C@H](C)NC(=O)[C@H](CCCCN)NC(=O)[C@H](CCCCN)NC(=O)[C@@H]3CSSC[C@@H](C(=O)N[C@H](C(=O)N[C@@H](CCCNC(=N)N)C(=O)N[C@@H](CCCCN)C(=O)O)[C@@H](C)O)NC(=O)[C@H](Cc4c[nH]cn4)NC(=O)[C@H](CSSC[C@H](NC(=O)[C@H](CCC(N)=O)NC(=O)[C@H](CCCNC(=N)N)NC(=O)[C@H](CO)NC1=O)C(=O)N[C@@H](CC(C)C)C(=O)N[C@@H](CCC(=O)O)C(=O)N1CCC[C@H]1C(=O)N3)NC(=O)[C@H](CCCCN)NC(=O)CNC(=O)[C@H](CC(N)=O)NC(=O)[C@H](CCSC)NC2=O` [P37R] (H-GVIINVKCKISRQCLEPCKKAGMRFGKCMNGKCHCTRK-OH; disulfide 8-28, 14-33, 18-35), the IC50 in experiment [1] (setting [3]) was determined as 0.229 nM; in experiment [2] (setting [4]), 0.253 nM.

`CC[C@H](C)[C@@H]1NC(=O)[C@H](CCCCN)NC(=O)[C@@H](NC(=O)[C@H](CCCCN)NC(=O)[C@@H](NC(=O)[C@H](CC(N)=O)NC(=O)[C@@H](NC(=O)[C@@H](NC(=O)[C@@H](NC(=O)CN)C(C)C)[C@@H](C)CC)[C@@H](C)CC)C(C)C)CSSC[C@@H]2NC(=O)[C@H](CCCCN)NC(=O)CNC(=O)[C@H](Cc3ccccc3)NC(=O)[C@H](CCCNC(=N)N)NC(=O)[C@H](CCSC)NC(=O)CNC(=O)[C@H](C)NC(=O)[C@H](CCCCN)NC(=O)[C@H](CCCCN)NC(=O)[C@@H]3CSSC[C@@H](C(=O)N[C@H](C(=O)N4CCC[C@H]4C(=O)N[C@@H](CCCCN)C(=O)O)[C@@H](C)O)NC(=O)[C@H](Cc4c[nH]cn4)NC(=O)[C@H](CSSC[C@H](NC(=O)[C@H](CCC(N)=O)NC(=O)[C@H](CCCNC(=N)N)NC(=O)[C@H](C)NC1=O)C(=O)N[C@@H](CC(C)C)C(=O)N[C@@H](CCC(=O)O)C(=O)N1CCC[C@H]1C(=O)N3)NC(=O)[C@H](CCCCN)NC(=O)CNC(=O)[C@H](CC(N)=O)NC(=O)[C@H](CCSC)NC2=O` [S11A] (H-GVIINVKCKIARQCLEPCKKAGMRFGKCMNGKCHCTPK-OH; disulfide 8-28, 14-33, 18-35): the values for the IC50 in experiment [1] (setting [3]) and in experiment [2] (setting [4]) were 0.09 nM and 0.11 nM, respectively.

As for “GVIINVKCKASRQCLEPCKKAGMRFGKCMNGKCHCTPK [Ala-10 (SEQ ID No: 1408)]”, the IC50 in experiment [1] (read-out: Average IC50 IL-2) worked out at 0.05 nM; in experiment [2] (read-out: Average IC50 IFNg) it was 0.0296 nM.

For the compound `CC[C@H](C)[C@@H]1NC(=O)[C@H](CCCCN)NC(=O)[C@@H](NC(=O)[C@H](CCCCN)NC(=O)[C@@H](NC(=O)[C@H](CC(N)=O)NC(=O)[C@@H](NC(=O)[C@@H](NC(=O)[C@@H](NC(=O)CN)C(C)C)[C@@H](C)CC)[C@@H](C)CC)C(C)C)CSSC[C@@H]2NC(=O)[C@H](CCCCN)NC(=O)CNC(=O)[C@H](Cc3ccccc3)NC(=O)[C@H](CCCNC(=N)N)NC(=O)[C@H](CCSC)NC(=O)[C@H](CCC(=O)O)NC(=O)[C@H](C)NC(=O)[C@H](CCCCN)NC(=O)[C@H](CCCCN)NC(=O)[C@@H]3CSSC[C@@H](C(=O)N[C@H](C(=O)N4CCC[C@H]4C(=O)N[C@@H](CCCCN)C(=O)O)[C@@H](C)O)NC(=O)[C@H](Cc4c[nH]cn4)NC(=O)[C@H](CSSC[C@H](NC(=O)[C@H](CCC(N)=O)NC(=O)[C@H](CCCNC(=N)N)NC(=O)[C@H](CO)NC1=O)C(=O)N[C@@H](CC(C)C)C(=O)N[C@@H](CCC(=O)O)C(=O)N1CCC[C@H]1C(=O)N3)NC(=O)[C@H](CCCCN)NC(=O)CNC(=O)[C@H](CC(N)=O)NC(=O)[C@H](CCSC)NC2=O` [G22E] (H-GVIINVKCKISRQCLEPCKKAEMRFGKCMNGKCHCTPK-OH; disulfide 8-28, 14-33, 18-35), the figures for the IC50 in experiment [1] (setting [3]) and in experiment [2] (setting [4]) were 0.109 nM and 0.164 nM, respectively.

`CC[C@H](C)[C@@H]1NC(=O)[C@H](CCCCN)NC(=O)[C@@H](NC(=O)[C@H](CCCCN)NC(=O)[C@@H](NC(=O)[C@H](CC(N)=O)NC(=O)[C@@H](NC(=O)[C@@H](NC(=O)[C@@H](NC(=O)CN)C(C)C)[C@@H](C)CC)[C@@H](C)CC)C(C)C)CSSC[C@@H]2NC(=O)[C@H](CCCCN)NC(=O)[C@H](C)NC(=O)[C@H](Cc3ccccc3)NC(=O)[C@H](CCCNC(=N)N)NC(=O)[C@H](CCSC)NC(=O)CNC(=O)[C@H](C)NC(=O)[C@H](CCCCN)NC(=O)[C@H](CCCCN)NC(=O)[C@@H]3CSSC[C@@H](C(=O)N[C@H](C(=O)N4CCC[C@H]4C(=O)N[C@@H](CCCCN)C(=O)O)[C@@H](C)O)NC(=O)[C@H](Cc4c[nH]cn4)NC(=O)[C@H](CSSC[C@H](NC(=O)[C@H](CCC(N)=O)NC(=O)[C@H](CCCNC(=N)N)NC(=O)[C@H](CO)NC1=O)C(=O)N[C@@H](CC(C)C)C(=O)N[C@@H](CCC(=O)O)C(=O)N1CCC[C@H]1C(=O)N3)NC(=O)[C@H](CCCCN)NC(=O)CNC(=O)[C@H](CC(N)=O)NC(=O)[C@H](CCSC)NC2=O` [G26A] (H-GVIINVKCKISRQCLEPCKKAGMRFAKCMNGKCHCTPK-OH; disulfide 8-28, 14-33, 18-35): the IC50 came out at 12.1 nM in experiment [1] (setting [3]) and 10.7 nM in experiment [2] (setting [4]).

Consider `CC[C@H](C)[C@@H]1NC(=O)[C@H](CCCCN)NC(=O)[C@@H](NC(=O)[C@H](CCCCN)NC(=O)[C@@H](NC(=O)[C@H](CC(N)=O)NC(=O)[C@@H](NC(=O)[C@@H](NC(=O)[C@@H](NC(=O)CN)C(C)C)[C@@H](C)CC)[C@@H](C)CC)C(C)C)CSSC[C@@H]2NC(=O)[C@H](CCCCN)NC(=O)CNC(=O)[C@H](Cc3ccccc3)NC(=O)[C@H](CCCNC(=N)N)NC(=O)[C@H](CCSC)NC(=O)CNC(=O)[C@H](C)NC(=O)[C@H](CCCCN)NC(=O)[C@H](CCCCN)NC(=O)[C@@H]3CSSC[C@@H](C(=O)N[C@H](C(=O)N4CCC[C@H]4C(=O)N[C@@H](CCCCN)C(=O)O)[C@@H](C)O)NC(=O)[C@H](Cc4c[nH]cn4)NC(=O)[C@H](CSSC[C@H](NC(=O)[C@H](CCC(N)=O)NC(=O)[C@H](CCCNC(=N)N)NC(=O)[C@H](CO)NC1=O)C(=O)N[C@@H](CC(C)C)C(=O)N[C@@H](CCC(=O)O)C(=O)N1CCC[C@H]1C(=O)N3)NC(=O)[C@H](CCCNC(=N)N)NC(=O)CNC(=O)[C@H](CC(N)=O)NC(=O)[C@H](CCSC)NC2=O` [K32R] (H-GVIINVKCKISRQCLEPCKKAGMRFGKCMNGRCHCTPK-OH; disulfide 8-28, 14-33, 18-35), for which the IC50 in experiment [1] (setting [3]) was determined as 0.028 nM; in experiment [2] (setting [4]), 0.034 nM.
